Laboratory results from patent US9545410B2, “Tyrosine kinase inhibitors as anti-kinetoplastid agents” (UNIVERSITY OF GEORGIA RESEARCH FOUNDATION, INC., priority 2006, dated 2017).
Read-outs that look alike come from different tables or passages of the source.

Columns and labels:
[1] = system: blood stream T. brucei strain 427; assay: Cultured bloodstream T. brucei growth/viability, parasites counted with a haemocytometer; format: cell-based, Trypanosoma brucei; conditions: for concentration at which all parasites were killed / no parasites survived: blood stream T. brucei strain 427, 37° C. for 40 hours
Procedure: Cultured trypanosomes (seeded at 10^4/ml) in 100 μl of a 96-well plate received varying amounts of Tyrphostin A47 (Sigma). Parasites were counted with a haemocytometer after 48 hours in culture. Data are means of triplicate determinations, they are representative of three independent trials. Blood stream form of T. brucei were used for these studies since that stage of the parasite causes disease in humans. Inhibitory concentration 50 (IC50) is the drug concentration which reduces the growth rate by 50%. Minimum inhibitory concentration (MIC) is the lowest concentration which killed all the parasites.
T. brucei strain 427 was cultured axenically and seeded at 10^4 cells/ml in 200 μl of medium a 96-well plate. Tyrphostin AG1478 (Sigma) (Zhu et al., 2001, Cancer Lett; 169:27-32; Shushan et al., 2004, Hum Reprod; 19:1957-1967) was added to the stated final concentrations, cells were incubated at 37° C. for 40 hours, and parasites were counted with a haemocytometer. Data are mean values representative of two independent trials each of which was performed in triplicate. T. brucei replicates every 8-10 hours.
The 4-anilinoquinazoline canertinib (also referred to as C1-1033) is an inhibitor of EGFR kinase (Dewji, 2004, J Chemotherapy; 16(Suppl 4):44-48; Hamid, 2004, J Am Pharm Assoc; 44:52-58). To test the trypanocidal activity of canertinib, culture of blood stream T. brucei strain 427 was initiated in 24-well plates at 10^4 cells/ml (in 500 μl of medium (Hirumi and Hirumi, 1991, Parasitology; 102(Pt 2):225-236)). Canertinib (Heymach et al., 2006, Clin Cancer Res; 12:4441s) (provided by Pfizer) was added to the stated final concentrations, and cells were incubated at 37° C. for 40 hours. Control cells received an equal volume of solvent (DMSO). Parasites were counted with a haemocytometer. Data plotted are mean values of quadruplicate determinations from one of three independent trials that produced similar results.
This example also determined that erlotinib (TARCEVA), a 4-anilinoquinazoline tyrosine kinase inhibitor is trypanocidal. erlotinib (TARCEVA), like canertinib, is an inhibitor of EGFR kinase (Bulgaru et al., 2003, Expert Rev Anticancer Ther; 3(3):269-79; Akita and Sliwkowski, 2003, Semin Oncol; 30(3 Suppl 7):15-24). The culture of blood stream T. brucei strain 427 was initiated in 24-well plates at 10^4 cells/ml in 500 μl of medium (Hirumi and Hirumi, 1991, Parasitology; 102 Pt 2:225-236). Erlotinib (TARCEVA) (provided by Genentech/OSI), was added to the stated final concentrations shown in FIG. 4, and cells were incubated at 37° C. for 40 hours.
This example presents data showing sunitinib and axitinib (both provided by Pfizer) are trypanocidal. Sunitinib (also known as SU11248 and marketed under the trade name SUTENT) inhibits VEGFR, PDGF, and c-Kit kinases (reviewed in Steeghs et al., 2007, Ann Surg Oncol; 14(2):942-53) and is approved by the Food and Drug Administration for treatment of renal cell carcinoma. […] Therefore, this example tests whether sunitinib (SUTENT) compromised T. brucei viability. To blood stream form T. brucei 427 (seeded at 10^4 cells/ml in 500 μl of medium) sunitinib (SUTENT) (Abrams et al., 2003, Mol Cancer Ther; 2:471-478; Mendel et al., 2003, Clin Cancer Res; 9:327-337) was added to the stated final concentrations and cells were incubated at 37° C. for 40 hours. Parasites were counted with a haemocytometer. Data plotted are mean values of quadruplicate determinations from a representative experiment.

[2] = cited from earlier work
[3] = Trypanosoma brucei, blood stream T. brucei strain 427 seeded at 10^4 cells/ml, 37° C. for 40 hours, read-out: IC50

Compound: COc1cc2ncnc(Nc3cccc(Cl)c3)c2cc1OC [Tyrphostin AG1478]
- IC50 ([1]; blood stream T. brucei strain 427 seeded at 10^4 cells/ml, 37° C. for 40 hours, read-out: IC50): 2500 to 5000 nM

Compound: CCN(CC)CCNC(=O)c1c(C)[nH]c(/C=C2\C(=O)Nc3ccc(F)cc32)c1C [SUTENT, N-[2-(diethylamino)ethyl]-5-[(Z)-(5-fluoro-1,2-dihydro-2-oxo-3H-indol-3-ylidine)methyl]-2,4-dimethyl-1H-pyrrole-3-carboxamide]
- trypanocidal effect on T. brucei (in words) ([1]; blood stream form T. brucei 427, 37° C. for 40 hours): kills T. brucei at low micromolar levels

Compound: N#C/C(=C\c1ccc(O)c(O)c1)C(N)=S [Tyrphostin A47]
- IC50 ([1]; blood stream form T. brucei seeded at 10^4/ml, 96-well plate, counted after 48 hours, read-out: IC50 (drug concentration which reduces the growth rate by 50%)): 1000 to 5000 nM

Compound: C#Cc1cccc(Nc2ncnc3cc(OCCOC)c(OCCOC)cc23)c1 [erlotinib, N-(3-ethynylphenyl)-6,7-bis(2-methoxyethoxy)quinazolin-4-amine]
- IC50 [1, 3]: ~1700 nM
- concentration at which all parasites were killed / no parasites survived [1]: 10 µM
- plasma concentration ([2]; human patients receiving a cycle of 150 mg/day): 60 µM
- plasma concentration ([2]; single dose): 2 µM

Compound: C=CC(=O)Nc1cc2c(Nc3ccc(F)c(Cl)c3)ncnc2cc1OCCCN1CCOCC1 [canertinib, N-[−4-[(3-chloro-4-fluorophenyl)amino]-7-[3-(4-morpholinyl)propoxy]-6-quinazolinyl]-2-propenamide]
- IC50 [1, 3]: 1000 nM
- concentration at which all parasites were killed / no parasites survived [1]: Above 4 μM
